Test results: paper PMC4551947 (Nucleic Acids Research, 2015)

How the values were obtained:
[1] = target: T1, NTD (isolated N-terminal SPOUT domain of EcTrmJ) (Escherichia coli, UniProt P0AE01); assay: isothermal titration calorimetry; type: binding; conditions: 25 °C, 20 mM Tris-HCl pH 7.5, 100 mM NaCl, 10 mM MgCl2
T1 sequence (P0AE01 1-170): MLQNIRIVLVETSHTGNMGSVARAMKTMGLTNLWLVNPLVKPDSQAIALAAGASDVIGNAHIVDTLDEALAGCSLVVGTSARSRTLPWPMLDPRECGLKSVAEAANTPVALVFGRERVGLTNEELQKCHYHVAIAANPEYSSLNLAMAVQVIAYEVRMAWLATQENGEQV

[2] = target: the molecule itself; assay: crystal structure

Molecule	KD [1]	stoichiometry N [2]
Nc1ncnc2c1ncn2[C@@H]1O[C@H](CSCC[C@H](N)C(=O)O)[C@@H](O)[C@H]1O [SAH]	NTD alone could bind SAH as effectively as full-length EcTrmJ	–
Escherichia coli TrmJ (EcTrmJ), tRNA Xm32 methyltransferase, full-length (enzyme, Escherichia coli K-12 MG1655, UniProt P0AE01 1-246, looked up) MLQNIRIVLVETSHTGNMGSVARAMKTMGLTNLWLVNPLVKPDSQAIALAAGASDVIGNAHIVDTLDEALAGCSLVVGTSARSRTLPWPMLDPRECGLKSVAEAANTPVALVFGRERVGLTNEELQKCHYHVAIAANPEYSSLNLAMAVQVIAYEVRMAWLATQENGEQVEHEETPYPLVDDLERFYGHLEQTLLATGFIRENHPGQVMNKLRRLFTRARPESQELNILRGILASIEQQNKGNKAE	–	2
